# Where two headings read alike, the source gives them in different places.
# Key:
# [1] = tested on: HT29 human tumor xenografts; test: HT29 xenograft study e212, oral and i.v. (Example 26); details: every four day schedule for four doses
# From the text: (§1) The formulation for oral studies was an ethanol and Cremophor formulation while the formulation for compound 18365 and compound 19244 dosed i.v. was 5% ethanol and 95% Liposyn II 20%.
# SK-MEL-28 = test: MTT cytotoxicity (IC50), SK-MEL-28; assay type: cell-based; details: Homo sapiens, 72 h, read-out: IN Vitro IC50 (nm) ske-mel28
# Method: (§2) Compound 17932 was tested in four of these cell lines, while the remaining compounds were tested in all of these cell lines. All cell lines were maintained in RPMI-1640 tissue culture medium (TCM, supplemented with antibiotics and 10% fetal bovine serum) and cultured at 37° C. in humidified air containing 5% CO2. To assess the antiproliferative effects of the test compounds, 172 μL of tumor cell suspension (1.45×10^4 cells/ml) were added to each well of a 96-well plate and incubated for 24 h at 37° C. in 5% CO2 in air to allow cells to adhere. Seven 2-fold drug dilutions in TCM/DMSO were performed in triplicate in separate 96-well plates and 28 μL was transferred to the wells containing tumor cells (200 μL final volume/0.1% DMSO). Plates were incubated for 72 h and cell viability was determined by adding 50 μL of warm TCM containing 5 mg/mL MTT (3-[4,5-dimethylthiazol-2-yl]-2,5-diphenyltetrazolium bromide) to each well and incubating for 1 h at 37° C. Plates were processed and the absorbances of the resulting solutions were measured by a plate reader at 570 nm. […] (GraphPad Prism version 4.00 for Windows). Studies were conducted by Taxolog, Inc., Tallahassee, Fla.
# [2] = tested on: HT29 human tumor xenografts; test: HT29 xenograft study e210, oral and i.v. (Example 25); details: for CR (complete regression) / NTR NTRa/u / NTR NTRm / PR (partial regression) / TFS (tumor-free survivor) / TR (treatment-related death): n=6
# From the text: as §1
# TK-10 = test: MTT cytotoxicity (IC50), TK-10; assay type: cell-based; details: Homo sapiens, 72 h, read-out: IN Vitro IC50 (nm) TK10
# Method: as §2
# PANC-1 = test: MTT cytotoxicity (IC50), PANC-1; assay type: cell-based; details: Homo sapiens, 72 h, read-out: IN Vitro IC50 (nm) Panc
# Method: as §2
# OVCAR4 = test: MTT cytotoxicity (IC50), OVCAR4; assay type: cell-based; details: Homo sapiens, OVCAR-4, 72 h, read-out: IN Vitro IC50 (nm) OVCAR4
# Method: as §2
# HT29 = test: MTT cytotoxicity (IC50), HT29; assay type: cell-based; details: Homo sapiens, HT-29, 72 h, read-out: IN Vitro IC50 (nm) HT29
# Method: as §2
# DLD-1 = test: MTT cytotoxicity (IC50), DLD-1; assay type: cell-based; details: Homo sapiens
# Method: as §2
# A375 = test: MTT cytotoxicity (IC50), A375; assay type: cell-based; details: Homo sapiens, A-375
# Method: as §2
# SNB-19 = test: MTT cytotoxicity (IC50), SNB-19; assay type: cell-based; details: Homo sapiens, 72 h, read-out: IN Vitro IC50 (nm) SNB19
# Method: as §2
# OVCAR5 = test: MTT cytotoxicity (IC50), OVCAR5; assay type: cell-based; details: Homo sapiens, OVCAR-5, 72 h, read-out: IN Vitro IC50 (nm) OVCAR5
# Method: as §2
# BxPC-3 cancer cell line = test: MTT cytotoxicity (IC50), BxPC-3 (Oncodesign); assay type: cell-based; details: Homo sapiens
# Method: BxPC-3 cancer cell line (Source ATCC) and culture medium were purchased and provided by Oncodesign (France).
# Tumor cells (5,000 cells per well) were plated in 96-well flat-bottom microtitration plates (Ref 167008, Batch 083310, Nunc, Dutscher, Brumath, France) and incubated at 37° C. for 24 hours before treatment in 100 μl of drug-free RPMI 1640 medium supplemented with 10% FBS. Tumor cell lines were incubated for 72 hours with 10 concentrations of both test substances and TXT (40 to 0.07 nM using ½ step dilutions). Experiments were repeated three times, each assay being issued from quadruplicate. Control cells were treated with the vehicle alone. At the end of treatments, the cytotoxic activity was evaluated by a MTT assay. These studies were conducted at Oncodesign, France.
structure (smiles),measurement,setting,value
CCC(=O)O[C@H]1C(=O)[C@@]2(C)C([C@H](OC(=O)c3ccccc3)[C@]3(O)C[C@H](OC(=O)[C@H](O)[C@@H](NC(=O)OC4CCC4)c4cccs4)C(C)=C1C3(C)C)[C@]1(OC(C)=O)CO[C@@H]1C[C@@H]2O (stereo partly drawn) [Compound 19244],activity in the HT29 xenograft tumor model,[1],oral and IV activity
same,IC50,SK-MEL-28,2 nM
same,% TGD,[2]; 30 mg/kg iv q4d × 4,214.3%
same,BW Nadir,[2]; 30 mg/kg iv q4d × 4,11.1% (16)
same,"MTV (n), Day 60",[2]; 30 mg/kg iv q4d × 4,36.00 (6) mm^3
same,Median TTE,[2]; 30 mg/kg iv q4d × 4,60 days
same,T-C,[2]; 30 mg/kg iv q4d × 4,40.91 days
same,CR (complete regression),[2]; 30 mg/kg iv q4d × 4,1
same,NTR NTRa/u,[2]; 30 mg/kg iv q4d × 4,0
same,NTR NTRm,[2]; 30 mg/kg iv q4d × 4,0
same,PR (partial regression),[2]; 30 mg/kg iv q4d × 4,5
same,TFS (tumor-free survivor),[2]; 30 mg/kg iv q4d × 4,1
same,TR (treatment-related death),[2]; 30 mg/kg iv q4d × 4,0
same,% TGD,[2]; 60 mg/kg po q4d × 4,214.3%
same,BW Nadir,[2]; 60 mg/kg po q4d × 4,−8.5% (16)
same,"MTV (n), Day 60",[2]; 60 mg/kg po q4d × 4,0.25 (6) mm^3
same,Median TTE,[2]; 60 mg/kg po q4d × 4,60 days
same,T-C,[2]; 60 mg/kg po q4d × 4,40.91 days
same,CR (complete regression),[2]; 60 mg/kg po q4d × 4,4
same,NTR NTRa/u,[2]; 60 mg/kg po q4d × 4,0
same,NTR NTRm,[2]; 60 mg/kg po q4d × 4,0
same,PR (partial regression),[2]; 60 mg/kg po q4d × 4,2
same,TFS (tumor-free survivor),[2]; 60 mg/kg po q4d × 4,4
same,TR (treatment-related death),[2]; 60 mg/kg po q4d × 4,0
same,activity in the HT29 xenograft tumor model,[2]; every four day schedule for four doses,oral and IV activity
same,IC50,TK-10,0.4 nM
same,IC50,PANC-1,1.2 nM
same,IC50,OVCAR4,2.7 nM
same,IC50,HT29,0.6 nM
same,IC50,"DLD-1; MTT, 72 h, read-out: IN Vitro IC50 (nm) DLD1",1.8 nM
same,IC50,"DLD-1; Resistance MDR1+, read-out: DLD1 Colon (Table 4, quantity not named; IC50 values as Table 2)",1.8 nM
same,IC50,"A375; MTT, 72 h, read-out: IN Vitro IC50 (nm) A375",0.6 nM
same,IC50,"A375; Resistance MRP9, read-out: A375 Melanoma (Table 4, quantity not named; IC50 values as Table 2)",0.5 nM
same,IC50,SNB-19,0.9 nM
same,IC50,OVCAR5,0.6 nM
same,IC50,"BxPC-3 cancer cell line; BXPC-3, 72 h, Exp 1, MTT, 72 hours, read-out: IC50 (nM) BxPC-3",0.53 nM
same,IC50,"BxPC-3 cancer cell line; BXPC-3, 72 h, Exp 2, MTT, 72 hours, read-out: IC50 (nM) BxPC-3",0.66 nM
same,IC50,"BxPC-3 cancer cell line; BXPC-3, 72 h, Exp 3, MTT, 72 hours, read-out: IC50 (nM) BxPC-3",1.03 nM
same,IC50,"BxPC-3 cancer cell line; BXPC-3, mean of 3 experiments, read-out: IC50 Mean ± SD (nM) BxPC-3",0.74 ± 0.26 nM
